Experimental data reported in patent US12653191B2, “Active compound combinations” (Bayer Aktiengesellschaft, priority 2020, dated 2026).
Read-outs that look alike come from different tables or passages of the source.

Legend:
Botrytis cinerea [1] = assay: in vitro-Test with fungal microorganisms, Method B (tables B15-B18); format: cell-based; details: Botrytis cinerea, read-out: Efficacy %
Outline: (§1)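 Efficacy scale: 0% means growth equal to the untreated control, 100% means none detected. Compounds are dried from methanol with emulsifier before adding inoculated growth medium; incubation at 20° C., 85% relative humidity for 3 to 7 days precedes photometric inhibition readout.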

[2] = tested on: Colletotrichum lindemuthianum; assay: in vitro-Test with fungal microorganisms, Method A (tables D1-D8); format: cell-based; details: Colletotrichum lindemuthianum, read-out: Efficacy %
Outline: (§2)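 Methanol/emulsifier compound solution evaporated in well; liquid potato dextrose medium + spore or mycelium suspension added; 20° C, 85% RH, 3-5 d; photometric read 620 nm; % efficacy vs untreated.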

Colletotrichum coccodes = assay: in vitro-Test with fungal microorganisms, Method B (tables J1-J11); format: cell-based; details: Colletotrichum coccodes, read-out: Efficacy %
Outline: as §1

[3] = tested on: Ustilago segetum var. avenae; assay: in vitro-Test with fungal microorganisms, Method B (tables I6-I11); format: cell-based; details: read-out: Efficacy %
Outline: as §1

Diaporthe citri [4] = assay: in vitro-Test with fungal microorganisms, Method A (tables F1-F11); format: cell-based
Outline: as §2

Parastagonospora nodorum [5] = assay: in vitro-Test with fungal microorganisms, Method A (tables H1-H4); format: cell-based
Procedure: Example: In Vitro-Test with Fungal Microorganisms
Wells of 96-well microtiter plates are filled with 10 μl of a preparation of test compound or compound combination in methanol+emulsifier alkylaryl-polyglycol-ether. Thereafter, the solvent is evaporated in a hood. At the next step, 100 μl of liquid potato dextrose medium is given into each well, that has been amended with an appropriate concentration of spores or mycelium suspension of the test fungus.
With the aid of a photometer, the extinction in all wells is measured at the wavelength of 620 nm.
The microtiter plates are incubated at 20° C. and 85% relative humidity. The inhibition of growth is determined again photometrically 3-5 days after the application. Efficacy is calculated in relation to the untreated control, 0% efficacy means fungal growth as high as in untreated control while 100% efficacy means no fungal growth is measured.
The data in tables A1 to A12, B1 to B14, C1 to C10, D1 to D8, E1 to E8, F1 to F11, G1 to G4, H1 to H4 and I1 to I5 were collected according to Method A. The data in tables A13 to A22, B15 to B18, C11 to C20, E9 to E16, F12 to F15, G5 to G15, H5 to H8, I6 to I11 and J1 to J11 were collected according to Method B.

Cordana musae [6] = assay: in vitro-Test with fungal microorganisms, Method A (tables E1-E8); format: cell-based; details: Neocordana musae, read-out: Efficacy %
Outline: as §2

Fusarium culmorum [7] = assay: in vitro-Test with fungal microorganisms, Method B (tables G5-G15); format: cell-based; details: Fusarium culmorum, read-out: Efficacy
Outline: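 Read photometrically at 600 nm after 3-7 days at 20° C and 85% relative humidity, Fusarium culmorum growth inhibition is expressed against untreated control. Wells hold solvent-evaporated compound (from methanol/emulsifier) overlaid with spore- or mycelium-amended growth medium.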

Cercospora beticola [8] = assay: in vitro-Test with fungal microorganisms, Method A (tables C1-C10); format: cell-based
Outline: as §2

Cordana musae [9] = assay: in vitro-Test with fungal microorganisms, Method B (tables E9-E16); format: cell-based; details: Neocordana musae, single active, read-out: Efficacy
Outline: as §1

Botrytis cinerea [10] = assay: in vitro-Test with fungal microorganisms, Method A (tables B1-B14); format: cell-based; details: Botrytis cinerea
Outline: as §2

Alternaria alternata = assay: in vitro-Test with fungal microorganisms, Method B (tables A13-A22); format: cell-based; details: Alternaria alternata, read-out: Efficacy
Outline: as §1

Alternaria alternate = assay: in vitro-Test with fungal microorganisms, Method A (tables A1-A12); format: cell-based, Alternaria alternata; details: Alternaria, applied alone, read-out: Efficacy %
Outline: as §2

Cercospora beticola [11] = assay: in vitro-Test with fungal microorganisms, Method B (tables C11-C20); format: cell-based; details: Cercospora beticola, single compound, read-out: Efficacy %
Outline: as §1

Fusarium culmorum [12] = assay: in vitro-Test with fungal microorganisms, Method A (tables G1-G4); format: cell-based; details: alone
Outline: as §2

Diaporthe citri [13] = assay: in vitro-Test with fungal microorganisms, Method B (tables F12-F15); format: cell-based
Outline: as §1

Parastagonospora nodorum [14] = assay: in vitro-Test with fungal microorganisms, Method B (tables H5-H8); format: cell-based; details: Parastagonospora nodorum, read-out: Efficacy
Outline: as §1

[15] = Diaporthe citri, applied alone, read-out: Efficacy
[16] = Diaporthe citri, single active, read-out: Efficacy

Cc1cc(C)nc(Nc2ccccc2)n1 [(7.005) pyrimethanil, pyrimethanil]
inhibition of growth at 0.8 ppm (Botrytis cinerea [1]; 0.8 ppm alone): 89%
inhibition of growth at 4 ppm (Botrytis cinerea [1]; 4 ppm alone): 95%
inhibition of growth at 0.8 ppm ([2]; single active at 0.8 ppm): 1%
inhibition of growth at 4 ppm ([2]; single active at 4.0 ppm): 0%
inhibition of growth at 20 ppm ([2]; single active at 20.0 ppm): 16%
inhibition of growth at 0.8 ppm (Colletotrichum coccodes; single active compound at 0.8 ppm): 25%
inhibition of growth at 0.8 ppm ([3]; 0.8 ppm): 18%
inhibition of growth at 4 ppm ([3]; 4 ppm): 42%
inhibition of growth at 20 ppm ([3]; 20 ppm): 49%
inhibition of growth at 4 ppm (Diaporthe citri [4]; [15]): 97%
inhibition of growth at 20 ppm (Diaporthe citri [4]; [15]): 100%
inhibition of growth at 0.8 ppm (Diaporthe citri [4]; Diaporthe citri, single active, 0.8 ppm, read-out: Efficacy): 0%
inhibition of growth at 4 ppm (Diaporthe citri [4]; [16]): 97%
inhibition of growth at 20 ppm (Diaporthe citri [4]; [16]): 100%
Efficacy (Parastagonospora nodorum [5]; 0.8 ppm): 100%
Efficacy (Parastagonospora nodorum [5]; 20.0 ppm): 100%
inhibition of growth at 4 ppm (Cordana musae [6]; mixing partner alone): 24%
inhibition of growth at 20 ppm (Cordana musae [6]; mixing partner alone): 4%
inhibition of growth at 4 ppm (Cordana musae [6]; single substance): 0%
inhibition of growth at 20 ppm (Cordana musae [6]; single substance): 24%
inhibition of growth at 0.8 ppm (Fusarium culmorum [7]; alone): 5%
inhibition of growth at 0.8 ppm (Fusarium culmorum [7]; single active compound): 8%
inhibition of growth at 4 ppm (Fusarium culmorum [7]; single active compound, 4 ppm): 16%
inhibition of growth at 20 ppm (Fusarium culmorum [7]; single active compound, 20 ppm): 24%
Efficacy % (Cercospora beticola [8]; 20.0 ppm): 100%
inhibition of growth at 0.8 ppm (Cercospora beticola [8]; Cercospora beticola, 0.8 ppm alone, read-out: Efficacy %): 10%
inhibition of growth at 0.8 ppm (Cercospora beticola [8]; Cercospora beticola, 0.8 ppm, read-out: Efficacy %): 20%
inhibition of growth at 4 ppm (Cercospora beticola [8]; Cercospora beticola, 4.0 ppm alone, read-out: Efficacy %): 98%
inhibition of growth at 4 ppm (Cercospora beticola [8]; Cercospora beticola, 4.0 ppm, read-out: Efficacy %): 100%
inhibition of growth at 0.8 ppm (Cordana musae [9]; 0.8 ppm): 40%
inhibition of growth at 4 ppm (Botrytis cinerea [10]; read-out: Efficacy): 100%
inhibition of growth at 20 ppm (Botrytis cinerea [10]; read-out: Efficacy): 100%
inhibition of growth at 0.8 ppm (Botrytis cinerea [10]; alone, 0.8 ppm, read-out: Efficacy %): 100%
inhibition of growth at 4 ppm (Botrytis cinerea [10]; alone, read-out: Efficacy %): 100%
inhibition of growth at 20 ppm (Botrytis cinerea [10]; alone, read-out: Efficacy %): 100%
inhibition of growth at 0.8 ppm (Alternaria alternata): 96%
inhibition of growth at 0.8 ppm (Alternaria alternata; single compound): 96%
inhibition of growth at 20 ppm (Alternaria alternata; single compound, 20 ppm): 100%
inhibition of growth at 4 ppm (Alternaria alternate; 4 ppm): 93%
inhibition of growth at 20 ppm (Alternaria alternate; 20 ppm): 82%

Fc1ccc(Oc2ccnc3cc(Cl)cc(Cl)c23)cc1 [(13.005) quinoxyfen, quinoxyfen]
inhibition of growth at 0.08 ppm (Botrytis cinerea [1]; 0.08 ppm alone): 0%
inhibition of growth at 0.4 ppm (Botrytis cinerea [1]; 0.4 ppm alone): 0%
inhibition of growth at 0.4 ppm (Cercospora beticola [11]; 0.4 ppm): 0%
inhibition of growth at 2 ppm (Cercospora beticola [11]; 2 ppm): 0%
inhibition of growth at 10 ppm (Cercospora beticola [11]; 10 ppm): 4%
inhibition of growth at 0.08 ppm ([2]; mixing partner alone, 0.08 ppm): 0%
inhibition of growth at 0.4 ppm ([2]; mixing partner alone, 0.4 ppm): 0%
inhibition of growth at 2 ppm ([2]; mixing partner alone, 2.0 ppm): 0%
inhibition of growth at 0.08 ppm ([2]; single active at 0.08 ppm): 1%
inhibition of growth at 0.4 ppm ([2]; single active at 0.4 ppm): 0%
inhibition of growth at 2 ppm ([2]; single active at 2.0 ppm): 0%
inhibition of growth at 10 ppm ([2]; single active at 10.0 ppm): 24%
inhibition of growth at 0.08 ppm (Colletotrichum coccodes; 0.08 ppm): 0%
inhibition of growth at 0.4 ppm (Colletotrichum coccodes; 0.4 ppm): 0%
inhibition of growth at 2 ppm (Colletotrichum coccodes; 2 ppm): 48%
inhibition of growth at 0.08 ppm (Colletotrichum coccodes; single active compound at 0.08 ppm): 0%
inhibition of growth at 0.4 ppm (Colletotrichum coccodes; single active compound at 0.4 ppm): 0%
inhibition of growth at 2 ppm (Colletotrichum coccodes; single active compound at 2 ppm): 18%
inhibition of growth at 10 ppm (Colletotrichum coccodes; single active compound at 10 ppm): 28%
inhibition of growth at 0.08 ppm ([3]; 0.08 ppm): 0%
inhibition of growth at 2 ppm ([3]; 2 ppm): 0%
inhibition of growth at 10 ppm ([3]; 10 ppm): 9%
inhibition of growth at 0.08 ppm (Diaporthe citri [4]; Diaporthe citri, Table F10, 0.08 ppm alone, read-out: Efficacy): 52%
inhibition of growth at 0.4 ppm (Diaporthe citri [4]; Diaporthe citri, Table F10, 0.4 ppm alone, read-out: Efficacy): 6%
inhibition of growth at 2 ppm (Diaporthe citri [4]; Diaporthe citri, Table F10, 2.0 ppm alone, read-out: Efficacy): 10%
inhibition of growth at 10 ppm (Diaporthe citri [4]; Diaporthe citri, Table F10, 10.0 ppm alone, read-out: Efficacy): 20%
inhibition of growth at 0.4 ppm (Diaporthe citri [4]; Diaporthe citri, applied alone, 0.4 ppm, read-out: Efficacy): 15%
inhibition of growth at 10 ppm (Diaporthe citri [4]; Diaporthe citri, applied alone, 10.0 ppm, read-out: Efficacy): 41%
Efficacy (Diaporthe citri [4]; applied alone, 2.0 ppm): 0%
inhibition of growth at 0.4 ppm (Cordana musae [6]; mixing partner alone): 0%
inhibition of growth at 2 ppm (Cordana musae [6]; mixing partner alone): 0%
inhibition of growth at 10 ppm (Cordana musae [6]; mixing partner alone): 0%
inhibition of growth at 0.08 ppm (Cordana musae [6]; single substance, 0.08 ppm): 0%
inhibition of growth at 0.4 ppm (Cordana musae [6]; single substance): 0%
inhibition of growth at 2 ppm (Cordana musae [6]; single substance): 0%
inhibition of growth at 10 ppm (Cordana musae [6]; single substance): 34%
Efficacy (Fusarium culmorum [12]; 10.0 ppm): 0%
inhibition of growth at 0.08 ppm (Fusarium culmorum [12]; Fusarium culmorum, 0.08 ppm, read-out: Efficacy): 0%
inhibition of growth at 10 ppm (Fusarium culmorum [12]; Fusarium culmorum, 10.0 ppm, read-out: Efficacy): 0%
inhibition of growth at 0.08 ppm (Fusarium culmorum [7]; single active compound, 0.08 ppm): 0%
inhibition of growth at 0.4 ppm (Fusarium culmorum [7]; single active compound, 0.4 ppm): 2%
inhibition of growth at 10 ppm (Fusarium culmorum [7]; single active compound, 10 ppm): 8%
Efficacy (Diaporthe citri [13]; Table F13, 0.08 ppm alone): 0%
Efficacy (Diaporthe citri [13]; Table F13, 2 ppm alone): 24%
Efficacy (Diaporthe citri [13]; Table F15, 0.4 ppm alone): 0%
Efficacy (Diaporthe citri [13]; Table F15, 2 ppm alone): 13%
Efficacy (Diaporthe citri [13]; Table F15, 10 ppm alone): 76%
inhibition of growth at 0.08 ppm (Cercospora beticola [8]; Cercospora beticola, 0.08 ppm alone, read-out: Efficacy %): 10%
inhibition of growth at 0.4 ppm (Cercospora beticola [8]; Cercospora beticola, 0.4 ppm alone, read-out: Efficacy %): 0%
inhibition of growth at 2 ppm (Cercospora beticola [8]; Cercospora beticola, 2.0 ppm alone, read-out: Efficacy %): 4%
inhibition of growth at 10 ppm (Cercospora beticola [8]; Cercospora beticola, 10.0 ppm alone, read-out: Efficacy %): 34%
inhibition of growth at 0.08 ppm (Cordana musae [9]; 0.08 ppm): 0%
inhibition of growth at 0.4 ppm (Cordana musae [9]; 0.4 ppm): 0%
inhibition of growth at 10 ppm (Cordana musae [9]; 10 ppm): 2%
inhibition of growth at 0.4 ppm (Botrytis cinerea [10]; alone, 0.4 ppm, read-out: Efficacy %): 0%
inhibition of growth at 0.08 ppm (Parastagonospora nodorum [14]; 0.08 ppm): 5%
inhibition of growth at 0.4 ppm (Parastagonospora nodorum [14]; 0.4 ppm): 4%
inhibition of growth at 2 ppm (Parastagonospora nodorum [14]; 2 ppm): 1%
inhibition of growth at 10 ppm (Parastagonospora nodorum [14]; 10 ppm): 33%
inhibition of growth at 10 ppm (Alternaria alternata; single compound, 10 ppm): 30%
